Source: patent US11591336B2 (Relay Therapeutics, Inc., priority 2017, dated 2023)
Structures can show the parent of a compound that is named as a salt.

Target: SHP2 (Homo sapiens (Human), UniProt Q06124)
Assay: SHP2 Allosteric Inhibition Assay (DiFMUP prompt fluorescence)
Format: biochemical
Settings: 0.25 nM SHP2 activated with 0.5 μM peptide IRS1_pY1172(dPEG8)pY1222; substrate DiFMUP 100 μM; 25° C.

| IC50 [µM] | Compound |
| --- | --- |
| < 1 | C[C@@H]1OCC2(CCN(c3cnc4c(N5CCCc6nc(C7=CCOC7)ccc65)n[nH]c4n3)CC2)[C@@H]1N [Compound 336] |
| < 1 | C[C@@H]1OCC2(CCN(c3cnc4c(N5CCCc6c5ccnc6-c5cnn(C)c5)n[nH]c4n3)CC2)[C@@H]1N [Compound 226] |
| < 1 | C[C@@H]1OCC2(CCN(c3cnc4c(N5CCCc6nc(-c7ccnnc7)ccc65)n[nH]c4n3)CC2)[C@@H]1N [Compound 305] |
| < 1 | CC1(CN)CCN(c2cnc3c(N4CCCc5cc(C(N)=O)ccc54)n[nH]c3n2)CC1 [Compound 58, 1-(6-(4-(aminomethyl)-4-methylpiperidin-1-yl)-1H-pyrazolo[3,4-b]pyrazin-3-yl)-1,2,3,4-tetrahydroquinoline-6-carboxamide] |
| < 1 | Cc1cnc(-c2ccc3c(n2)CCCN3c2n[nH]c3nc(N4CCC5(CC4)CO[C@@H](C)[C@H]5N)cnc23)s1 [Compound 382] |
| < 1 | COC(=O)N1CCN(c2n[nH]c3nc(N4CCC5(CC4)CO[C@@H](C)[C@H]5N)cnc23)c2ccccc21 [Compound 391] |
| 1 to 10 | C[C@@H]1OCC2(CCN(c3cnc4c(N5CCc6cccc(C#N)c6C5)n[nH]c4n3)CC2)[C@@H]1N [Compound 359] |
| < 1 | C[C@@H]1OCC2(CCN(c3cnc4c(N5CCCc6c5cccc6N(C)S(C)(=O)=O)n[nH]c4n3)CC2)[C@@H]1N [Compound 374] |
| < 1 | CC1(N)CCN(c2cnc3c(Sc4cccnc4C(=O)O)n[nH]c3n2)CC1 [Compound 482] |
| < 1 | CC1CN(c2n[nH]c3nc(N4CCC(C)(CN)CC4)cnc23)c2ccccc21 (centres unmarked) [Compound 123] |
| < 1 | C[C@@H]1CCN(c2n[nH]c3nc(N4CCC(C)(CN)CC4)cnc23)c2ccc(-c3nnc[nH]3)nc21 [Compound 199, 1-(4-methyl-1-{3-[(4R)-4-methyl-6-(4H-1,2,4-triazol-3-yl)-1,2,3,4-tetrahydro-1,5-naphthyridin-1-yl]-1H-pyrazolo[3,4-b]pyrazin-6-yl}piperidin-4-yl)methanamine] |
| < 1 | C[C@@H]1OCC2(CCN(c3cnc4c(N5CCc6cnccc6C5)n[nH]c4n3)CC2)[C@@H]1N [Compound 291] |
| 1 to 10 | CC1CCN(c2n[nH]c3nc(N4CCC(CN)(CC(=O)O)CC4)cnc23)c2cccnc21 (centres unmarked) [Compound 171, 2-[4-(aminomethyl)-1-[3-(4-methyl-1,2,3,4-tetrahydro-1,5-naphthyridin-1-yl)-1H-pyrazolo[3,4-b]pyrazin-6-yl]piperidin-4-yl]acetic acid] |
| < 1 | CNC(=O)c1cccc2c1CCCN2c1n[nH]c2nc(N3CCC(C)(CN)CC3)cnc12 [Compound 79, 1-(6-(4-(Aminomethyl)-4-methylpiperidin-1-yl)-1H-pyrazolo[3,4-b]pyrazin-3-yl)-N-methyl-1,2,3,4-tetrahydroquinoline-5-carboxamide] |
| < 1 | NC1=NCCC12CCN(c1cnc3c(N4CCCc5ncccc54)n[nH]c3n1)CC2 [Compound 202, 8-(3-(3,4-dihydro-1,5-naphthyridin-1(2H)-yl)-1H-pyrazolo[3,4-b]pyrazin-6-yl)-2,8-diazaspiro[4.5]dec-1-en-1-amine dihydrochloride] |
| 1 to 10 | C[C@@H]1CCc2ccccc2N1c1n[nH]c2nc(N3CCC(C)(N)CC3)cnc12 [Compound 36] |
| ≥ 10 | CC1Cc2ccccc2C(=O)N1c1n[nH]c2nc(N3CCC4(CC3)CO[C@@H](C)[C@H]4N)cnc12 (some centres unmarked) [Compound 385] |
| < 1 | CN1CCN(c2n[nH]c3nc(N4CCC(C)(CN)CC4)cnc23)c2ccccc21 [Compound 127] |
| < 1 | CC(=O)N(C)Cc1cccc2c1CCCN2c1n[nH]c2nc(N3CCC4(CC3)CO[C@@H](C)[C@H]4N)cnc12 [Compound 466] |
| 1 to 10 | CNC(=O)N1CCN(c2n[nH]c3nc(N4CCC5(CC4)CO[C@@H](C)[C@H]5N)cnc23)c2ncccc21 [Compound 313, 4-{6-[(3S,4S)-4-amino-3-methyl-2-oxa-8-azaspiro[4.5]decan-8-yl]-1H-pyrazolo[3,4-b]pyrazin-3-yl}-N-methyl-1H,2H,3H,4H-pyrido[2,3-b]pyrazine-1-carboxamide] |
| < 1 | C[C@@H]1OCC2(CCN(c3cnc4c(N5CCCc6c5ccnc6-c5cn[nH]c5)n[nH]c4n3)CC2)[C@@H]1N [Compound 289] |
| < 1 | CC1(CN)CCN(c2cnc3c(N4CCN(C(=O)CO)c5ccccc54)n[nH]c3n2)CC1 [Compound 194, 1-(4-(6-(4-(aminomethyl)-4-methylpiperidin-1-yl)-1H-pyrazolo[3,4-b]pyrazin-3-yl)-3,4-dihydroquinoxalin-1(2H)-yl)-2-hydroxyethan-1-one] |
| < 1 | OCC1CCCCN1c1cnc2c(N3CCCc4ncccc43)n[nH]c2n1 (centres unmarked) [Compound 138] |
| < 1 | Cn1ccc(Sc2n[nH]c3nc(N4CCC(C)(N)CC4)cnc23)c(Cl)c1=O [Compound 484, 4-((6-(4-amino-4-methylpiperidin-1-yl)-1H-pyrazolo[3,4-b]pyrazin-3-yl)thio)-3-chloro-1-methylpyridin-2(1H)-one] |

| IC50 [µM] | Compound |
| --- | --- |
| < 1 | C[C@@H]1OCC2(CCN(c3cnc4c(N5CCN(C)c6nc(C#N)ccc65)n[nH]c4n3)CC2)[C@@H]1N [Compound 383] |
| < 1 | C[C@@H]1OCC2(CCN(c3cnc4c(N5CCc6ccccc6C5=O)n[nH]c4n3)CC2)[C@@H]1N [Compound 270] |
| < 1 | C[C@@H]1OCC2(CCN(c3cnc4c(N5CC(=O)N(C)c6cc(C#N)ccc65)n[nH]c4n3)CC2)[C@@H]1N [Compound 275, 1-{6-[(3S,4S)-4-amino-3-methyl-2-oxa-8-azaspiro[4.5]decan-8-yl]-1H-pyrazolo[3,4-b]pyrazin-3-yl}-4-methyl-3-oxo-1,2,3,4-tetrahydroquinoxaline-6-carbonitrile] |
| < 1 | C[C@@H]1OCC2(CCN(c3cnc4c(N5CCCc6c5ccc(C#N)c6C5CC5)n[nH]c4n3)CC2)[C@@H]1N [Compound 207] |
| ≥ 10 | NC(=O)NC1CCN(c2cnc3c(N4CCCc5ncccc54)n[nH]c3n2)CC1 [Compound 160] |
| < 1 | CC(=O)Nc1cccc2c1CCCN2c1n[nH]c2nc(N3CCC4(CC3)CO[C@@H](C)[C@H]4N)cnc12 [Compound 376, N-(1-{6-[(3S,4S)-4-amino-3-methyl-2-oxa-8-azaspiro[4.5]decan-8-yl]-1H-pyrazolo[3,4-b]pyrazin-3-yl}-1,2,3,4-tetrahydroquinolin-5-yl)acetamide] |
| < 1 | CC1(CN)CCN(c2cnc3c(Sc4ccnc5[nH]ccc45)n[nH]c3n2)CC1 [Compound 515, (1-(3-((1H-pyrrolo[2,3-b]pyridin-4-yl)thio)-1H-pyrazolo[3,4-b]pyrazin-6-yl)-4-methylpiperidin-4-yl)methanamine] |
| < 1 | C[C@@H]1OCC2(CCN(c3cnc4c(N5CC[C@H](C)c6nc(C(=O)NCc7cccnc7)ccc65)n[nH]c4n3)CC2)[C@@H]1N [Compound 445] |
| < 1 | CC(C)N1CCN(c2n[nH]c3nc(N4CCC5(CC4)CO[C@@H](C)[C@H]5N)cnc23)c2cccnc21 [Compound 387] |
| < 1 | C[C@@H]1OCC2(CCN(c3cnc4c(N5CCCc6c5ccnc6-c5nccs5)n[nH]c4n3)CC2)[C@@H]1N [Compound 424] |
| < 1 | C[C@@H]1OCC2(CCN(c3cnc4c(N5CCCc6nc(-c7cn[nH]c7)ccc65)n[nH]c4n3)CC2)[C@@H]1N [Compound 259] |
| < 1 | C[C@@H]1OCC2(CCN(c3cnc4c(N5CCN(C)c6nnccc65)n[nH]c4n3)CC2)[C@@H]1N [Compound 413] |
| ≥ 10 | OC1CCCN(c2cnc3c(N4CCCc5ncccc54)n[nH]c3n2)C1 (centres unmarked) [Compound 143] |
| ≥ 10 | Cn1ccnc1Sc1n[nH]c2nc(N3CCC(C)(N)CC3)cnc12 [Compound 14, 4-methyl-1-(3-((1-methyl-1H-imidazol-2-yl)thio)-1H-pyrazolo[3,4-b]pyrazin-6-yl)piperidin-4-amine] |
| < 1 | CC(C)NC(=O)c1ccc2c(n1)[C@H](C)CCN2c1n[nH]c2nc(N3CCC4(CC3)CO[C@@H](C)[C@H]4N)cnc12 [Compound 438] |
| < 1 | C[C@@H]1OCC2(CCN(c3cnc4c(N5CCc6c(C#N)cccc6C5)n[nH]c4n3)CC2)[C@@H]1N [Compound 274] |
| < 1 | Cc1nccc(Oc2n[nH]c3nc(N4CCC5(CC4)CO[C@@H](C)[C@H]5N)cnc23)c1Cl [Compound 517, (3S,4S)-8-(3-((3-chloro-2-methylpyridin-4-yl)oxy)-1H-pyrazolo[3,4-b]pyrazin-6-yl)-3-methyl-2-oxa-8-azaspiro[4.5]decan-4-amine] |
| < 1 | N[C@@H]1CCC12CCN(c1cnc3c(N4CCCc5ncccc54)n[nH]c3n1)CC2 [Compound 339, (1R)-7-[3-(1,2,3,4-tetrahydro-1,5-naphthyridin-1-yl)-1H-pyrazolo[3,4-b]pyrazin-6-yl]-7-azaspiro[3.5]nonan-1-amine] |
| < 1 | Cc1nnc(-c2ccc3c(c2)[C@@H](C)CCN3c2n[nH]c3nc(N4CCC5(CC4)CO[C@@H](C)[C@H]5N)cnc23)o1 [Compound 353] |
| < 1 | C[C@@H]1CCN(c2n[nH]c3nc(N4CCC5(CC4)CO[C@@H](C)[C@H]5N)cnc23)c2ccc(C#N)cc21 [Compound 219] |
| < 1 | CC(C)c1nc(-c2ccc3c(n2)CCCN3c2n[nH]c3nc(N4CCC5(CC4)CO[C@@H](C)[C@H]5N)cnc23)no1 [Compound 321, (3S,4S)-3-methyl-8-(3-{6-[5-(propan-2-yl)-1,2,4-oxadiazol-3-yl]-1,2,3,4-tetrahydro-1,5-naphthyridin-1-yl}-1H-pyrazolo[3,4-b]pyrazin-6-yl)-2-oxa-8-azaspiro[4.5]decan-4-amine; formic acid] |
| < 1 | CCN1CCN(c2n[nH]c3nc(N4CCC5(CC4)CO[C@@H](C)[C@H]5N)cnc23)c2ccc(C#N)cc21 [Compound 405] |
| < 1 | CC1(CN)CCN(c2cnc3c(N4CCC(CO)c5ccccc54)n[nH]c3n2)CC1 (centres unmarked) [Compound 99, (1-(6-(4-(Aminomethyl)-4-methylpiperidin-1-yl)-1H-pyrazolo[3,4-b]pyrazin-3-yl)-1,2,3,4-tetrahydroquinolin-4-yl)methanol] |
